Laboratory results published in article PMC6694038, “Pharmacogenomic–pharmacokinetic study of selective estrogen-receptor modulators with intra-patient dose escalation in breast cancer” (Breast Cancer (Tokyo, Japan), 2019).

Legend:
[1] = patients homozygous for CYP2D6 PM genotype on double dose (40 mg) of TAM; cited from earlier work
[2] = Plasma concentrations of TAM, TOR and their metabolites by LC–MS/MS (screening study)
[3] = weighting of plasma concentration; cited from earlier work
[4] = 14 poor TAM metabolizers enrolled in the dose-escalation study
[5] = patients on TAM 20 mg a day, N=182

Endoxifen on TAM 20 mg, max [2, 4]: 12.6 ng/mL
Endoxifen on TAM 20 mg, mean [2, 4]: 9.7 ng/mL
Endoxifen on TAM 20 mg, median [2, 4]: 10.4 ng/mL
Endoxifen on TAM 20 mg, min [2, 4]: 1.8 ng/mL
Patients with endoxifen levels lower than 15 ng/mL ([2]; among the 182 patients on TAM): 50
Patients with endoxifen levels < 7.5 ng/mL ([2]; of the 273 participating patients): 11
Plasma concentration, max [2, 5]: 64.5 ng/mL
Plasma concentration, mean [2, 5]: 23.5 ng/mL
Plasma concentration, median [2, 5]: 22.8 ng/mL
Plasma concentration, min [2, 5]: 1.8 ng/mL
Plasma concentration, variability (range) ([2]; patients taking TAM 20 mg a day): 1.8 to 64.5 ng/mL
SMILES: CC/C(=C(\c1ccc(O)cc1)c1ccc(OCCNC)cc1)c1ccccc1 [Endoxifen, endoxifen]
Endoxifen concentration relative to EMs [1]: less than one-half of the endoxifen concentrations for EMs
In vitro activity factor in the total activity of TAM (TAM = 1.0) [3]: 46.3
